Measurements: patent publication US20060041013A1, “Alanosine formulations and methods of use” (priority 2004, published 2006)
Values joined by “and” are separate entries in the source; they are usually repeats but may differ in a detail not shown here. Identical values can stand only once.

What was measured:
physchem = assay type: physicochemical
Experimental: The solution was stirred on a stir plate at room temperature and the pH was adjusted by adding 20 microliter (μL) aliquots of 1N NaOH. After the addition of each aliquot, the resulting pH was measured potentiometrically and the results were recorded. The results of the titration appear in FIG. 1. The solution was also visually inspected during the course of the titration experiment to observe full dissolution of the alanosine.

[1] = Chirality analysis: conversion of L-alanosine to D-alanosine (chiral HPLC); assay type: physicochemical
Experimental: The following HPLC procedure was used to separate the L- and D-enantiomers of alanosine. The HPLC system (Agilent 1100) employed a 4.6 mm×150 mm column (Phenomenex) containing 5 μm particles (Chirex 3126, (D)-penicillamine) as the stationary phase. The system was equipped with both UV and polarimeter detectors. The UV detector was set to 254 nm to monitor products being eluted from the column, while the polarimeter detector was set to 670 nm. The eluent was 2 mM CuSO4/MeOH 70-30. The flow rate was 1.7 mL/min. at a pressure of 200 bar. For each run, a 100 μL sample containing 0.5 mg/mL in 2 mM CuSO4 was injected onto the column. […] To reverse the elution order, (L)-penicillamine could be used.

A-594 = experiment: Intracellular ATP levels (Cell-Titer Glow); assay type: cell-based; conditions: 72 h; A-594, NSCLC, MTAP Negative; 3 day treatment
Experimental: (§1) MTAP status was determined using immunoblot analyses and correlated with the ability of an MTA analog to rescue ATP levels in cell lines treated with SDX-102. ATP levels were measured using Cell-Titer Glow™ (Promega) after a 3 day treatment with titrated concentrations of either SDX-102 or pemetrexed.

BxPC3 = experiment: Intracellular ATP levels (Cell-Titer Glow); assay type: cell-based; conditions: Homo sapiens, BXPC-3, 72 h; BxPC3, Pancreatic, MTAP Negative; 3 day treatment
Experimental: as §1

NCI-H2452 [2] = experiment: Intracellular ATP levels (Cell-Titer Glow); assay type: cell-based; conditions: Homo sapiens, 72 h; NCI-H2452, Mesothelioma, MTAP Negative; 3 day treatment; read-out: ATP IC50
Experimental: as §1

NCI-H226 = experiment: Cell viability MTT assay (Example 3); assay type: cell-based; conditions: Homo sapiens, 72 h; NCI-H226, Mesothelioma, MTAP Positive; 3 days
A549 = experiment: Docetaxel, 5-FU, SDX-102 alone or combined, MTT/MTS cytotoxicity (Example 4); assay type: cell-based; conditions: Homo sapiens; A549, NSCLC, single agent, MTT 72 hours
BX-PC3 = experiment: as above; assay type: cell-based; conditions: Homo sapiens, BXPC-3; BX-PC3, Pancreatic, single agent, MTT 72 hours
NCI-H2452 [3] = experiment: as above; assay type: cell-based; conditions: Homo sapiens; NCI-H2452, Mesothelioma, single agent, MTT 72 hours
A549 NSCLC xenografts = experiment: MTAP-negative A549 NSCLC xenografts in SCID mice; assay type: in vivo; conditions: 60 days monitoring, doses as administered
[4] = 6 months, 20 mg/mL, pH 8.5
Experimental: Each solution was divided into 5 mL aliquots and placed in 6 mL vials sealed with Teflon-faced screw caps (VWR Scientific, catalogue No. 66011-880). Vials of each solution were placed at five different temperatures, −20° C., 5° C., 25° C., 40° C., and 60° C., and aliquots were analyzed at various time points to determine stability.

[5] = humans, intravenous, biphasic plasma clearance; times approximate; cited from earlier work
[6] = cited from earlier work
[7] = t1 yr., pH 7.5, 25° C., listed as L
[8] = t1 yr., pH 8.5, 25° C., listed as L
[9] = t6 mo., pH 8.5, 25° C., listed as L

Q: With `NC(CN(O)N=O)C(=O)O` [L-alanosine, L(−)-2-amino-3-nitrosohydroxylaminopropionic acid] as the molecule, how does the solubility in water (physchem) read?
A: poor solubility

Q: What about the “pH that must be exceeded for full dissolution” value (physchem; free base, approx. 20 mg/mL in water) of the same molecule?
A: exceeded 6.2

Q: And the pKa (physchem; pKa (first))?
A: ~5.5

Q: And the pKa (physchem; pKa (second))?
A: ~8.5

Q: What about the “conversion to D-alanosine” value ([1]; after one year at 5° C., pH 7.5 or 8.5) of the same molecule?
A: no conversion to D-alanosine

Q: What about the “conversion to D-alanosine at pH 8.5 compared to pH 7.5” value ([1]; storage at 25° C.) of the same molecule?
A: 5-10 times

Q: And the “% Total Peak Area L” value ([1]; t0)?
A: 100%

Q: And the “% Total Peak Area L” value ([1]; t1 yr., pH 7.5, 5° C.)?
A: 100%

Q: What about the “% Total Peak Area D” value [1, 7] of the same molecule?
A: 0.99% and 0.78%

Q: What about the “% Total Peak Area L” value [1, 7] of the same molecule?
A: 99.01% and 99.22%

Q: What about the “% Total Peak Area L” value ([1]; t1 yr., pH 8.5, 5° C.) of the same molecule?
A: 100%

Q: What about the “% Total Peak Area D” value [1, 8] of the same molecule?
A: 4.45% and 4.56%

Q: And the “% Total Peak Area L” value [1, 8]?
A: 95.55% and 95.44%

Q: What about the “% Total Peak Area L” value ([1]; t6 mo., pH 8.5, 5° C.) of the same molecule?
A: 100%

Q: And the “% Total Peak Area D” value [1, 9]?
A: 2.03% and 2.04%

Q: And the “% Total Peak Area L” value [1, 9]?
A: 97.97% and 97.96%

Q: And the IC50 (A-594)?
A: 300 nM

Q: What about the IC50 (BxPC3) of the same molecule?
A: 600 nM

Q: And the IC50 (NCI-H2452 [2])?
A: 400 nM

Q: What about the IC50 (NCI-H226) of the same molecule?
A: 1500 nM

Q: What about the IC50 (A549) of the same molecule?
A: 300 ± 100 nM

Q: And the IC50 (BX-PC3)?
A: 3000 ± 1000 nM

Q: What about the IC50 (NCI-H2452 [3]) of the same molecule?
A: 1000 ± 500 nM

Q: And the tumor growth inhibition (A549 NSCLC xenografts)?
A: did not induce tumor growth inhibition

Q: What about the “stability versus freshly reconstituted lyophilizate (HPLC)” value [4] of the same molecule?
A: as stable after storage at 5 °C for six months as a composition prepared by freshly reconstituting lyophilized L-alanosine

Q: What about the t1/2α [5] of the same molecule?
A: ~14 min

Q: And the t1/2β [5]?
A: ~99 min

Q: And the “single bolus dose at which renal toxicity reported” value ([6]; human, in vivo)?
A: above 4 g/m^2 body weight

Q: And the dose-limiting toxicity ([6]; phase II, adults with acute non-lymphoblastic leukemia, continuous infusion about 125 mg/m^2 for 5 days)?
A: mucositis
